Target: T1, PLK1 (Homo sapiens, UniProt P53350)
T1 construct: PLK kinase domain (amino acids 21-346 preceded by MKKGHHHHHHD); made in house; host or cells: baculovirus infected T. ni cells
Assay: Assay for inhibition of PLK1 (SPA kinase assay)
Type: biochemical
Settings: 1 μM ATP, 2 nM PLK1 kinase domain, read-out: PLK1 pIC50 (converted)
Protocol: I. Assay for Inhibition of PLK1
A. Preparation of 6× N-terminal His-tagged PLK Kinase Domain
6× N-terminal His-tagged PLK kinase domain (amino acids 21-346 preceded by MKKGHHHHHHD) SEQ ID: No. 1. was prepared from baculovirus infected T. ni cells under polyhedrin promoter control. All procedures were performed at 4° C. Cells were lysed In 50 mM HEPES, 200 mM NaCl, 50 mM imidazole, 5% glycerol; pH 7.5. The homogenate was centrifuged at 14K rpm in a SLA-1500 rotor for 1 hr and the supernatant filtered through a 1.2 micron filter. The supernatant was loaded onto a Nickel chelating Sepharose (Amersham Pharmacia) column and washed with lysis buffer. Protein was eluted using 20%, 30% and 100% buffer B steps where buffer B was 50 mM HEPES, 200 mM NaCl, 300 mM imidazole, 5% glycerol; pH 7.5. Fractions containing PLK were determined by SDS-PAGE. Fractions containing PLK were diluted five-fold with 50 mM HEPES, 1 mM DTT, 5% glycerol; pH 7.5, then loaded on an SP Sepharose (Amersham Pharmacia) column. After washing the column with 50 mM HEPES, 1 mM DTT, 5% glycerol; pH 7.5, PLK was step eluted with 50 mM HEPES, 1 mM DTT, 500 mM NaCl; 5% glycerol; pH 7.5. PLK was concentrated using a 10 kDa molecular weight cutoff membrane and then loaded onto a Superdex 200 gel filtration (Amersham Pharmacia) column equilibrated in 25 mM HEPES, 1 mM DTT, 500 mM NaCl, 5% glycerol; pH 7.5. Fractions containing PLK were determined by SDS-PAGE. PLK was pooled, aliquoted and stored at −80° C. Samples were quality controlled using mass spectrometry, N-terminal sequencing and amino acid analysis.
B. Enzyme Activity +/− Inhibitors was Determined as Follows:
All measurements were obtained under conditions where signal production increased linearly with time and enzyme. Test compounds were added to white 384-well assay plates (0.1 μL for 10 μL and some 20 μL assays, 1 μL for some 20 μL assays) at variable known concentrations in 100% DMSO. DMSO (1-5% final, as appropriate) and EDTA (65 mM in reaction) were used as controls. Reaction Mix was prepared as follows at 22° C.: • 25 mM HEPES, pH 7.2 • 15 mM MgCl2 • 1 μM ATP • 0.05 μCi/well ^33P-γ ATP (10 Ci/mMol) • 1 μM substrate peptide (Biotin-Ahx-SFNDTLDFD) SEQ ID:No. 2. • 0.15 mg/mL BSA • 1 mM DTT • 2 nM PLK1 kinase domain (added last)
Reaction Mix (10 or 20 μL) was quickly added to each well immediately following addition of enzyme via automated liquid handlers and incubated 1-1.5 h at 22° C. The 20 μL enzymatic reactions were stopped with 50 μL of stop mix (50 mM EDTA, 4.0 mg/mL Streptavidin SPA beads in Standard Dulbecco's PBS (without Mg^2+ and Ca^2+), 50 μM ATP) per well. The 10 μL reactions were stopped with 10 μL of stop mix (50 mM EDTA, 3.0 mg/mL Streptavidin-coupled SPA imaging Beads (“LeadSeeker”) in Standard Dulbecco's PBS (without Mg^2+ and Ca^2+), 50 μM ATP) per well. Plates were sealed with clear plastic seals, spun at 500×g for 1 min or settled overnight, and counted in Packard TopCount for 30 seconds/well (regular SPA) or imaged using a Viewlux imager (LeadSeeker SPA). Signal above background (EDTA controls) was converted to percent Inhibition relative to that obtained in control (DMSO-only) wells.

T1 sequence (P53350 21-346): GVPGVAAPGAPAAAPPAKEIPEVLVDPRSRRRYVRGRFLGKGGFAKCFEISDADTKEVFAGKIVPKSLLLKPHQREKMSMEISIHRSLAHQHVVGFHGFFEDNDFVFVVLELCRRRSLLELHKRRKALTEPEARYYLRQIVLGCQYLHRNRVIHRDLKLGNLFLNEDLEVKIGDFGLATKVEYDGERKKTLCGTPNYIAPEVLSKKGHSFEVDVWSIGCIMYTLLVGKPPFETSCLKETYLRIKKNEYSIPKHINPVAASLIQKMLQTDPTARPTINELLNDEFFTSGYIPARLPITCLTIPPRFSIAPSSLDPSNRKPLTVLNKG

SMILES	IC50 [µM]
CC(Oc1cc(-n2cnc3cc(-c4cnn(C)c4)ccc32)sc1C(N)=O)c1cccc(OC2CCN(C)CC2)c1 (racemic) [Example 74, (+/−)-3-[(1-{3-[(1-methyl-4-piperidinyl)oxy]phenyl}ethyl)oxy]-5-[5-(1-methyl-1H-pyrazol-4-yl)-1H -benzimidazol-1-yl]-2-thiophenecarboxamide]	< 0.1
C[C@@H](Oc1cc(-n2cnc3cc(OC(F)(F)F)ccc32)sc1C(N)=O)c1cccc(OC2CCN(C)CC2)c1Cl [Example 62, 3-[((1R)-1-{2-chloro-3-[(1-methyl-4-piperidinyl)oxy]phenyl}ethyl)oxy]-5-{5-[(trifluoromethyl)oxy]-1H-benzimidazol-1-yl}-2-thiophenecarboxamide]	< 0.1
C[C@@H](Oc1cc(-n2cnc3cc(Cl)ccc32)sc1C(N)=O)c1cccc(OC[C@H]2CNCCO2)c1Cl [Example 27, 5-(5-Chloro-1H-benzimidazol-1-yl)-3-{[(1R)-1-(2-chloro-3-{[(2R)-2-morpholinylmethyl]oxy}phenyl)ethyl]oxy}-2-thiophenecarboxamide]	< 0.1
C[C@@H](Oc1cc(-n2cnc3ccccc32)sc1C(N)=O)c1cccc(OCCN2CCOCC2)c1Cl [Example 15, 5-(1H-benzimidazol-1-yl)-3-{[(1R)-1-(2-chloro-3-{[2-(4-morpholinyl)ethyl]oxy}phenyl)ethyl]oxy}-2-thiophenecarboxamide]	< 0.1
C[C@@H](Oc1cc(-n2cnc3ccccc32)sc1C(N)=O)c1cccc(OC2CCN(C)CC2)c1Cl [Example 13, 5-(1H-benzimidazol-1-yl)-3-[((1R)-1-{2-chloro-3-[(1-methyl-4-piperidinyl)gxy]phenyl}ethyl)oxy]-2-thiophenecarboxamide]	< 0.1
C[C@@H](Oc1cc(-n2cnc3cc(F)c(F)cc32)sc1C(N)=O)c1cccc(OC2CCN(C)CC2)c1Cl [Example 66, 3-[((1R)-1-{2-chloro-3-[(1-methyl-4-piperidinyl)oxy]phenyl}ethyl)-oxy]-5-(5,6-difluoro-1H-benzimidazol-1-yl)-2-thiophenecarboxamide]	< 0.1
CC(Oc1cc(-n2cnc3cc(-c4cnn(C)c4)ccc32)sc1C(N)=O)c1cccc(OC2CCNCC2)n1 (racemic) [Example 81, (+/−)-5-[5-(1-Methyl-1H-pyrazol-4-yl)-1H-benzimidazol-1-yl]-3-({1-[6-(4-piperidinyloxy)-2-pyridinyl]ethyl}oxy)-2-thiophenecarboxamide]	< 0.1
C[C@@H](Oc1cc(-n2cnc3cc(Cl)ccc32)sc1C(N)=O)c1cccc(OC2CCN(CCS(C)(=O)=O)CC2)c1Cl [Example 23, 5-(5-Chloro-1H-benzimidazol-1-yl)-3-({(1R)-1-[2-chloro-3-({1-[2-(methylsulfonyl)ethyl]-4-piperidinyl}oxy)phenyl]ethyl}oxy)-2-thiophenecarboxamide]	< 0.1
C[C@@H](Oc1cc(-n2cnc3cc(Cl)ccc32)sc1C(N)=O)c1ccc(F)c(OC2CCN(C)CC2)c1Cl [Example 32, 5-(5-Chloro-1H-benzimidazol-1-yl)-3-[((1R)-1-{2-chloro-4-fluoro-3-[(1-methyl-4-piperidinyl)oxy]phenyl}ethyl)oxy]-2-thiophenecarboxamide]	< 0.1
C[C@@H](Oc1cc(-n2cnc3cc(-c4ccc(NC5CCN(C)CC5)nc4)ccc32)sc1C(N)=O)c1cccc(OC2CCN(C)CC2)c1Cl [Example 18, 3-[((1R)-1-{2-chloro-3-[(1-methyl-4-piperidinyl)oxy]phenyl}ethyl)oxy]-5-(5-{6-[(1-methyl-4-piperidinyl)amino]-3-pyridinyl}-1H-benzimidazol-1-yl)-2-thiophenecarboxamide]	< 0.1
C[C@@H](Oc1cc(-n2cnc3cc(-c4cnn(C)c4)ccc32)sc1C(N)=O)c1cccc(OC2CCN(CCF)CC2)c1Cl [Example 29, 3-{[(1R)-1-(2-Chloro-3-{[1-(2-fluoroethyl)-4-piperidinyl]oxy}phenyl)ethyl]oxy}-5-[5-(1-methyl-1H-pyrazol-4-yl)-1H-benzimidazol-1-yl]-2-thiophenecarboxamide]	< 0.1
C[C@@H](Oc1cc(-n2cnc3ccc(OC(F)(F)F)cc32)sc1C(N)=O)c1cccc(OC2CCNCC2)c1Cl [Example 63, 3-({(1R)-1-[2-chloro-3-(4-piperidinyloxy)phenyl]ethyl}oxy)-5-{6-[(trifluoromethyl)oxy]-1H-benzimidazol-1-yl}-2-thiophenecarboxamide]	< 0.1
Cc1cc(-c2ccc3c(c2)ncn3-c2cc(O[C@H](C)c3cccc(OC4CCNCC4)c3Cl)c(C(N)=O)s2)ccn1 [Example 49, 3-({(1R)-1-[2-Chloro-3-(4-piperidinyloxy)phenyl]ethyl}oxy)-5-[5-(2-methyl-4-pyridinyl)-1H-benzimidazol-1-yl]-2-thiophenecarboxamide]	< 0.1
C[C@@H](Oc1cc(-n2cnc3cc(Cl)c(Cl)cc32)sc1C(N)=O)c1cccc(OC2CCN(C)CC2)c1Cl [Example 72, 3-[((1R)-1-{2-chloro-3-[(1-methyl-4-piperidinyl)oxy]phenyl}ethyl)oxy]-5-(5,6-dichloro-1H-benzimidazol-1-yl)-2-thiophenecarboxamide]	< 0.1
C[C@@H](Oc1cc(-n2cnc3ccc(CS(C)(=O)=O)cc32)sc1C(N)=O)c1cccc(OCC2CCNCC2)c1Cl [Example 56, 3-[((1R)-1-{2-chloro-3-[(4-piperidinylmethyl)oxy]phenyl}ethyl)oxy]-5-{6-[(methylsulfonyl)methyl]-1H-benzimidazol-1-yl}-2-thiophenecarboxamide]	< 0.1
C[C@@H](Oc1cc(-n2cnc3cc(-c4cccnc4)ccc32)sc1C(N)=O)c1cccc(OC2CCN(C)CC2)c1Cl [Example 11, 3-[((1R)-1-{2-chloro-3-[(1-methyl-4-piperidinyl)oxy]pheny}ethyl)oxy]-5-[5-(3-pyridinyl)-1H-benzimidazol-1-yl]-2-thiopnenecarboxamide]	< 0.1
C[C@@H](Oc1cc(-n2cnc3cc(-c4cnn(C)c4)ccc32)sc1C(N)=O)c1ccc(F)c(OC2CCNCC2)c1Cl [Example 33, 3-({(1R)-1-[2-Chloro-4-fluoro-3-(4-piperidinyloxy)phenyl]ethyl}oxy)-5-[5-(1-methyl-1H-pyrazol-4-yl)-1H-benzimidazol-1-yl]-2-thiophenecarboxamide]	< 0.1
Cc1cc(-c2ccc3c(c2)ncn3-c2cc(O[C@H](C)c3cccc(OC4CCN(C)CC4)c3Cl)c(C(N)=O)s2)ccn1 [Example 50, 3-[((1R)-1-{2-Chloro-3-[(1-methyl-4-piperidinyl)oxy]phenyl}ethyl)oxy]-5-[5-(2-methyl-4-pyridinyl)-1H-benzimidazol-1-yl]-2-thiophenecarboxamide]	< 0.1
C[C@@H](Oc1cc(-n2cnc3ccc(Cl)cc32)sc1C(N)=O)c1cccc(OC2CCN(C)CC2)c1Cl [Example 53]	< 0.1
COc1cc2ncn(-c3cc(O[C@H](C)c4cccc(NCC5CCNCC5)c4Cl)c(C(N)=O)s3)c2cc1OC [Example 1, 5-[5,6-Bis(methyloxy)-1H-benzimidazol-1-yl]-3-[((1R)-1-{2-chloro-3-[(4-piperidinylmethyl)amino]phenyl}ethyl)oxy]-2-thiophenecarboxamide]	< 0.1
C[C@@H](Oc1cc(-n2cnc3ccccc32)sc1C(N)=O)c1cccc(OCCN2CCN(C)CC2)c1Cl [Example 17, 5-(1H-benzimidazol-1-yl)-3-{[(1R)-1-(2-chloro-3-{[2-(4-methyl-1-piperazinyl)ethyl]oxy}phenyl)ethyl]ocy}-2-thiophenecarboxamide]	< 0.1
C[C@@H](Oc1cc(-n2cnc3ccc(C#N)cc32)sc1C(N)=O)c1cccc(OC2CCNCC2)c1Cl [Example 5, 3-{(1R)-1-[2-chloro-3(piperidin-4-yloxy)phenyl]ethoxy}-5-(6-cyano-1H-benzimidazol-1-yl)thiophene-2-carboxamide]	< 0.1

From US7615643B2 (SmithKline Beecham Corporation, priority 2006, dated 2009)
